Measured values taken from patent US7452896B2, “Pyrimidine-sulfamides and their use as endothelian receptor antagonist” (Actelion Pharmaceuticals Ltd., priority 2002, dated 2008).

Tests used:
[1] = target: T1, ETB receptors (rat tracheal rings) (Rattus norvegicus, UniProt P21451); assay: Inhibition of sarafotoxin S6c-induced contraction on isolated rat tracheal rings; conditions: contraction induced by sarafotoxin S6c, read-out: pA2 value Trachea (converted)
T1 construct: The thoracic aorta or trachea were excised, dissected and cut in 3-5 mm rings; from tissue; host or cells: tracheal rings of adult Wistar rats, epithelium removed
T1 sequence (P21451 27-442): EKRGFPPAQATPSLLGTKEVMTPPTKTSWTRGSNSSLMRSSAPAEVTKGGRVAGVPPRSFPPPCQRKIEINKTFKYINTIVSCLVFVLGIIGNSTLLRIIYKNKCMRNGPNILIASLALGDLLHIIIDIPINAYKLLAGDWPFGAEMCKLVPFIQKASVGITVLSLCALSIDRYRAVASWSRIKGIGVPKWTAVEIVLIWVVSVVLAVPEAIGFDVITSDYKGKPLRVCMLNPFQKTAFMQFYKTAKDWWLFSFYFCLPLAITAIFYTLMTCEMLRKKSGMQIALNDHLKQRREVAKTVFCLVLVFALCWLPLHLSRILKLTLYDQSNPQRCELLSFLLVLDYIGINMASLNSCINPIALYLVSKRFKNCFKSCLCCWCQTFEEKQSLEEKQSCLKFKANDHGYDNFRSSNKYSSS
Method: (§1) 2) Inhibition of Endothelin-Induced Contractions on Isolated Rat Aortic Rings (ETA Receptors) and Rat Tracheal Rings (ETB Receptors):
(§2) The functional inhibitory potency of the endothelin antagonists was assessed by their inhibition of the contraction induced by endothelin-1 on rat aortic rings (ETA receptors) and of the contraction induced by sarafotoxin S6c on rat tracheal rings (ETB receptors). Adult Wistar rats were anesthetized and exsanguinated. The thoracic aorta or trachea were excised, dissected and cut in 3-5 mm rings. The endothelium/epithelium was removed by gentle rubbing of the intimal surface. Each ring was suspended in a 10 ml isolated organ bath filled with Krebs-Henseleit solution (in mM; NaCl 115, KCl 4.7, MgSO4 1.2, KH2PO4 1.5, NaHCO3 25, CaCl2 2.5, glucose 10) kept at 37° C. and gassed with 95% O2 and 5% CO2. The rings were connected to force transducers and isometric tension was recorded (EMKA Technologies SA, Paris, France). The rings were stretched to a resting tension of 3 g (aorta) or 2 g (trachea). […] The functional inhibitory potency of the test compound was assessed by calculating the concentration ratio, i.e. the shift to the right of the EC50 induced by different concentrations of test compound. […]

[2] = target: T2, human recombinant ETA receptors (Homo sapiens, UniProt P25101); assay: Inhibition of [125I]ET-1 binding to membranes of CHO cells expressing human recombinant ETA receptors
T2 construct: expressed in transfected cells; host or cells: CHO cells (microsomal membranes)
T2 sequence (P25101 21-427): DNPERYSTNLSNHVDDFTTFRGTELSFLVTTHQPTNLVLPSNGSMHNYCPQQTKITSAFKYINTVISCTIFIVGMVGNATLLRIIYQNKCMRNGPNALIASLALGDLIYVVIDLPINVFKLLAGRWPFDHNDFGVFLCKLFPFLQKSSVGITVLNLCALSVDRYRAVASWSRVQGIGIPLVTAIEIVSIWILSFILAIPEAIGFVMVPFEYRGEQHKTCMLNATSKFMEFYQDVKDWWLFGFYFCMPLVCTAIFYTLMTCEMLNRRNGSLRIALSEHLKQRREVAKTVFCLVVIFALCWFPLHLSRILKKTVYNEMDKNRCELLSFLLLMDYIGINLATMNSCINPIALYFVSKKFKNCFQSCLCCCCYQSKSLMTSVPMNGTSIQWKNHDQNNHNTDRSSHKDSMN
Method: (§3) 1) Inhibition of Endothelin Binding to Membranes from CHO Cells Carrying Human ET Receptors:
(§4) For competition binding studies, membranes of CHO cells expressing human recombinant ETA or ETB receptors were used. Microsomal membranes from recombinant CHO cells were prepared and the binding assay made as previously described (Breu V., et al, FEBS Lett 1993; 334:210).
(§5) The assay was performed in 200 uL 50 mM Tris/HCl buffer, pH 7.4, including 25 mM MnCl2, 1 mM EDTA and 0.5% (w/v) BSA in polypropylene microtiter plates. […] After 2 h, the membranes were filtered on filterplates containing GF/C filters (Unifilterplates from Canberra Packard S.A. Zürich, Switzerland). To each well, 50 uL of scintillation cocktail was added (MicroScint 20, Canberra Packard S.A. Zürich, Switzerland) and the filter plates counted in a microplate counter (TopCount, Canberra Packard S.A. Zürich, Switzerland).
(§6) All the test compounds were dissolved, diluted and added in DMSO.

[3] = target: T3, human recombinant ETB receptors (Homo sapiens, UniProt P24530); assay: Inhibition of [125I]ET-1 binding to membranes of CHO cells expressing human recombinant ETB receptors
T3 construct: expressed in transfected cells; host or cells: CHO cells (microsomal membranes)
T3 sequence (P24530 27-442): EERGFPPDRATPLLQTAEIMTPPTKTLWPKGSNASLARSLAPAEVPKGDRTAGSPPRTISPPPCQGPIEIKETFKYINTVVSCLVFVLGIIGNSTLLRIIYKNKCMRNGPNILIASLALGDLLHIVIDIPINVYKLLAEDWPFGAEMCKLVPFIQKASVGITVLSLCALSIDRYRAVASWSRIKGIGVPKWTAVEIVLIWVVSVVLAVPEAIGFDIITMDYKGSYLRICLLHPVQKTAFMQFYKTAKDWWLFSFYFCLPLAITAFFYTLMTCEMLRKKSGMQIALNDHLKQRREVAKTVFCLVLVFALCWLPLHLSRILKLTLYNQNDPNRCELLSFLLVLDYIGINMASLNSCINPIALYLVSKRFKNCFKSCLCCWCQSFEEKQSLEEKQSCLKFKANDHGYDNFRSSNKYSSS
Method: as §3, §4, §5, §6

[4] = target: T4, ETA receptors (rat aortic rings) (Rattus norvegicus, UniProt P26684); assay: Inhibition of endothelin-1-induced contraction on isolated rat aortic rings; conditions: read-out: pA2 value Aorta (converted)
T4 construct: The thoracic aorta or trachea were excised, dissected and cut in 3-5 mm rings; from tissue; host or cells: thoracic aorta rings of adult Wistar rats, endothelium removed
T4 sequence (P26684 21-426): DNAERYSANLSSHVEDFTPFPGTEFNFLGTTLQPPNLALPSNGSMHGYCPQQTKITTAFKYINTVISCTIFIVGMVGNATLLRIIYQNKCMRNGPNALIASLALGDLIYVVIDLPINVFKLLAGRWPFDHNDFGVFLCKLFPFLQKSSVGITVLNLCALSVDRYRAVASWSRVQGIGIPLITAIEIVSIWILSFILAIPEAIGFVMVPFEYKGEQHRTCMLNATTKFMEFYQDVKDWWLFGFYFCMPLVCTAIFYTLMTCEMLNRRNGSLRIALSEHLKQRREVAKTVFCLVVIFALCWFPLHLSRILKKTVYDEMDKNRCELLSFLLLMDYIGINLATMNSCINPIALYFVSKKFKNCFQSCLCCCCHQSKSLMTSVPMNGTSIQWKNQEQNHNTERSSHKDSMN
Method: as §1, §2

SMILES | Kb [1] [nM] | IC50 [2] [nM] | IC50 [3] [nM] | Kb [4] [nM]
COCCNS(=O)(=O)Nc1ncnc(OCCOc2ncc(Br)cn2)c1-c1ccc(Br)cc1 [Example 2, 2-methoxy-ethanesulfamic acid {5-(4-bromophenyl)-6-[2-(5-bromopyrimidin-2-yloxy)-ethoxy]-pyrimidin-4-yl}-amide] | > 10000 | 0.22 | 222 | 3.31
COCCNS(=O)(=O)Nc1ncnc(OCCOc2ncc(OC)cn2)c1-c1ccc(Br)cc1 [Example 4, 2-Methoxy-ethanesulfamic acid {5-(4-bromophenyl)-6-[2-(5-methoxypyrimidin-2-yloxy)-ethoxy]-pyrimidin-4-yl}-amide] |  | 1.27 | 560 | 
COCCNS(=O)(=O)Nc1ncnc(OCCOc2ncc(SC)cn2)c1-c1ccc(Br)cc1 [Example 3, 2-Methoxy-ethanesulfamic acid {5-(4-bromophenyl)-6-[2-(5-methylsulfanyl-pyrimidin-2-yloxy)-ethoxy]-pyrimidin-4-yl}-amide] |  | 0.2 | 120 | 
COCCNS(=O)(=O)Nc1ncnc(OCCOc2ncc(Br)cn2)c1Oc1cc(OC)ccc1Cl [Example 1, 2-methoxy-ethanesulfamic acid [6-[2-(5-bromo-pyrimidin-2-yloxy)-ethoxy]-5-(2-chloro-5-methoxy-phenoxy)-pyrimidin-4-yl]-amide] | 5130 | 0.28 | 174 | 126
